In patent publication US5128354A, “Agent for treating ischemic brain damage” (priority 1987, dated 1992):
Like-named read-outs stand apart in the source and are kept apart here.

Key:
[1] = tested on: cerebral hypoxia; assay: Prolonging effect on the persistent time of gasping movements in complete ischemia; type: in vivo, mice (STD-ddY strain, male); conditions: for ED (15% prolongation): Mus musculus, po, read-out: Complete ischemia PD15 (dose which prolonged the persistent time of gasping movements by 15%)
Description: (§1) Protective effect on cerebral hypoxia
(1) Prolonging effect on the persistent time of gasping movements in complete ischemia
This test was carried out according to the method described in Arch. int. Pharmacodyn., 233, 136-144 (1978).
Male mice of STD-ddY strain weighing 22-26 g were used in groups of 5 animals. A prescribed amount of test compounds, suspended in a 0.5% aqueous tragacanth solution, was orally administered to mice at a volume of 0.1 ml per 10 g of body weight. Two hours or one hour (for carbamazepine) after the administration of test compounds, the necks of the animals were cut with scissors for decapitation. The persistent time of gasping movements in the isolated heads was measured. To control group was orally administered only the same volume of a 0.5% aqueous tragacanth solution. The PD15 was calculated from the dose-activity relationship. The PD15 means the dose of a test compound which prolonged the persistent time of gasping movements by 15% in comparison with that of control group.

[2] = tested on: cerebral hypoxia; assay: Prolonging effect on survival time of mice in normobaric hypoxia; type: in vivo, mice (STD-ddY strain, male); conditions: Mus musculus, po, read-out: Normobaric hypoxia PD30 (dose which prolonged the survival time by 30%)
Description: as §1
(2) Prolonging effect on survival time of mice in normobaric hypoxia
This test was carried out according to the method described in Naunyn-Schmiedeberg's Arch. Pharmacol., 334, 282-289 (1986).
Male mice of STD-ddY strain weighing […] were used in groups of 5 animals. A prescribed amount of test compounds, suspended in a 0.5% aqueous tragacanth solution, was orally administered to mice at a volume of 0.1 ml per 10 g of body weight. Two hours or one hour (for carbamazepine) after the administration of test compounds, each animal was taken in a 2.5-liter plastic chamber, and a mixed gas of 4% oxygen and 96% nitrogen was passed through the chamber at a rate of 4 liters/minute. There was measured the time to the death (respiratory cessation) of the animal. To control group was orally administered only the same volume of a 0.5% aqueous tragacanth solution. The PD30 was calculated from the dose-activity relationship. The PD30 means the dose of a test compound which prolonged the survival time by 30% in comparison with that of control group.

[3] = tested on: delayed neuronal death in the gerbil hippocampal CA1 subfield; assay: Protective effect on delayed neuronal death in the gerbil hippocampus following a transient ischemia; type: in vivo, Mongolian gerbils (male); conditions: p.o.; for CA1 neuronal density: ± S.E., 5 min occlusion, 4 days after
Description: Protective effect on delayed neuronal death in the gerbil hippocampus following a transient ischemia
This test was carried out according to the method described in Brain Res., 239, 57-69 (1982).
Male Mongolian gerbils weighing 65-85 g were used in groups of 5 or 6 animals. A prescribed amount of test compounds, suspended in a 0.5% aqueous tragacanth solution, was orally administered to animals at a volume of 0.2 ml per 100 g of body weight. To control group was orally administered only the same volume of 0.5% aqueous tragacanth solution. One hour after the administration of test compounds, the necks of the gerbils were opened by a mid line incision under ether anesthesia, and then the bilateral common carotid arteries were exposed and occluded with Zen clips to block the blood flow. After 5 minutes, the clips were released and the blood flow was restored. Animals for the sham-operated group were operated in the same manner as above except that the occlusion of the carotid arteries. After 4 days, the animals were anesthetized with pentobarbital and fixed by transcardiac perfusion with a fixative solution containing 2.5% glutaraldehyde and 2% formaldehyde in 0.1M phosphate buffer (pH 7.4) at a pressure of 120 cm H2 O, and then the brains were removed. After the isolated brains were kept in the same fixative solution as above overnight, they were cut into coronal sections which contained the hippocampal area 0.5-1.0 mm posterior to the most rostral tip of the hippocampus or 1.4-1.9 mm posterior to bregma. Dissected brains were dehydrated and then embedded in paraffin. From the paraffin block, 4 μm-thin sections were prepared and subjected to hematoxylin-eosin staining.
The number of morphologically intact neurons remaining in the hippocampal CA1 subfield of the above tissue specimen was measured using a computer-image digitizer (Image Research Inc., Canada, MCID model) at a magnification of 200×, and neuronal density per mm^2 area of the right and left hippocampus, namely, the CA1 neuronal density, was calculated.
The value of the CA1 neuronal density in the table was calculated based on the average of the numbers of the remaining neurons in the right and left hippocampus of each animal. Student's t-test was used for the statistical analysis.

[4] = Hypnonarcotic activity (loss of righting reflex); design: species or system mice (STD-ddY strain, male); conditions: mouse, in vivo, po
Description: (§2) This test was carried out according to the method described in Japan. J. Pharmacol., 13, 259-273 (1963).
(§3) Male mice of STD-ddY strain weighing 22-26 g were used in groups of 5-10 animals. A prescribed amount of test compounds, suspended in a 0.5% aqueous tragacanth solution, was orally administered to mice at a volume of 0.1 ml per 10 g of body weight. […] The HD50 was calculated by Probit method. The HD50 means the dose of a test compound which produced hypnonarcotic effect in 50% of animals.

[5] = in vivo; type: in vivo; conditions: mouse, in vivo, po; mice, p.o.; mortality observed for 7 days; Probit method; read-out: Acute toxicity LD50
Description: (§4) Male mice of STD-ddY strain weighing 22-26 g were used in groups of 5-10 animals. A prescribed amount of test compounds, suspended in a 0.5% aqueous tragacanth solution, was orally administered to mice at a volume of 0.2 ml per 10 g of body weight.

[6] = tested on: mice; assay: in vivo; type: in vivo; conditions: p.o.
Description: as §4

[7] = Arch. int. Pharmacodyn., 286, 282-298 (1987); cited from earlier work
[8] = tested on: mice; assay: Hypnonarcotic activity (loss of righting reflex); design: species or system mice (STD-ddY strain, male); conditions: mouse, in vivo, po, 200 mg/kg
Description: as §2, §3

[9] = mice, p.o., 2 h (1 h for carbamazepine) after administration
[10] = mice, p.o., 4% oxygen/96% nitrogen, 2 h (1 h for carbamazepine) after administration

Compound	ED (15% prolongation) [1]	protective effects on cerebral hypoxia compared with reference drugs (Table 1) ([1]; mice, p.o., complete ischemia and normobaric hypoxia (also A2))	ED (30% prolongation) [2]	CA1 neuronal density ([3]; 10 mg/kg)	protective effect on delayed neuronal death (in words) ([3]; 30 mg/kg)	CA1 neuronal density ([3]; 30 mg/kg)	protective effect on delayed neuronal death (in words) ([3]; 100 mg/kg)	CA1 neuronal density ([3]; 100 mg/kg)	TD50 [4]	LD50 at 168 h [5]	toxicity (in words) [6]	ED (15% prolongation) [1, 9]	ED (30% prolongation) [2, 10]	TD50 ([4]; mice, p.o., righting reflex lost for 60 minutes or more, Probit method, read-out: Hypnonarcotic activity HD50 (dose which produced hypnonarcotic effect in 50% of animals))	effect against cerebral hypoxia (in words) [7]	Clonic convulsion and death [8]
NS(=O)(=O)Cc1noc2ccccc12 [The active compound of the invention, 3-Sulfamoylmethyl-1,2-benzisoxazole]	6 mg/kg	comparable to those of phenobarbital, phenytoin and carbamazepine	29.4 mg/kg	519 ± 28 number of cells/mm^2	extremely strong protective effect	2713 ± 228 number of cells/mm^2	almost completely prevented the delayed neuronal death	3326 ± 49 number of cells/mm^2	934 mg/kg	1890 mg/kg	weak	–	–	–	–	–
NC(=O)N1c2ccccc2C=Cc2ccccc21 [Carbamazepine]	–	–	–	482 ± 272 number of cells/mm^2	–	932 ± 353 number of cells/mm^2	relatively weak protective effect	1235 ± 330 number of cells/mm^2	–	–	–	5.5 mg/kg	19.6 mg/kg	345 mg/kg	effective against cerebral hypoxia	–
O=C1NC(=O)C(c2ccccc2)(c2ccccc2)N1 [Phenytoin]	–	–	–	–	–	228 ± 87 number of cells/mm^2	relatively weak protective effect	1464 ± 503 number of cells/mm^2	> 200 mg/kg	–	–	5.5 mg/kg	22.7 mg/kg	–	effective against cerebral hypoxia	convulsion in all mice and of death in some mice
CCC1(c2ccccc2)C(=O)NC(=O)NC1=O [Phenobarbital]	15 mg/kg	–	26.8 mg/kg	–	–	–	–	–	–	201 mg/kg	–	–	–	–	–	–
